Reference: patent EP0099122A2, “Compositions comprising pepstatin and an histamine H2-receptor antagonist having an enhanced antiulcer activity” (Bristol-Myers Company, priority 1982, dated 1984)
Marks after values point to notes of the source that are not given here.

Legend:
[1] = system: HCl-Induced Formation of Gastric Lesions; test: HCl-induced gastric erosions in rats (modified method of Robert et al.); type: in vivo, Long Evans rats; settings: for enhancement of the inhibitory effect by pepstatin: plus 20 mg/kg pepstatin
Procedure: In the tests described below, gastric erosions produced in rats by the oral instillation of 1.0 mL of 0.75N HC1 were compared with those in rats which had been pretreated with the most preferred compound of Formula I (of Example 1) or with that compound and pepstatin. Comparison tests utilizing pretreatment with the newer commercial product, ranitidine, and with ranitidine and pepstatin, are also shown. Ranitidine is about 4 and 6 times as potent as cimetidine as an inhibitor of gastric acid secretion by the oral route in the rat and dog, respectively.
A modification of the method of Robert et al., [Gastroenterology, 77, 433-443 (1979)] was employed to produce gastric erosions. Adult male, Long Evans rats weighing 280-300 g (Blue Spruce Farms, Alton, New York) were used. The animals were individually caged and food and water were removed 24 and 18 hours, respectively, prior to testing. On the following day, the test compound was administered orally to the animals 30 minutes before 1.0 mL of 0.75N HC1 was instilled into the stomach by gavage. Animals treated with the combination of the test compound and pepstatin received the test compound 30 minutes before, and a fixed amount of pepstatin (20 mg/kg po) 10 minutes before, the hydrochloric acid was administered. […] One hour after receiving the HC1 solution, the animals were sacrificed with an intraperitoneal injection of 0.2 mL of T-61®, a euthanasia solution (National Laboratories Corp.).
The stomachs were removed from the animals, cut along the greater curvature, opened, rinsed with saline and pinned out flat in a standard position for macroscopic examination and scoring of erosions. The stomachs were photographed with a Polaroid® Close Up camera (Polaroid Corporation) and scoring was determined from the photographs. For scoring purposes, only those erosions with a minimum length of 1 mm were considered. The severity of gastric ulceration was defined for each animal as the sum of the maximum continuous lengths (in mm) of the erosions satisfying the above criteria. Percent inhibition of lesion formation was defined as
(mm erosion, vehicle control') - (mm erosion, test agent) 100. (mm erosion, vehicle control)
Data were analyzed using the t-test for unpaired data' and ED50 values were calculated from the dose response data using probit analysis [Finney, Probit Analysis, 3rd ed., University Press, Cambridge, England (1971)].
The compound of Example 1 and ranitidine (synthesized by the Medicinal Chemistry Research Department of Bristol Laboratories, Division of.Bristol-Myers Company) were dissolved in one equivalent of HC1 and the pH adjusted to 5.5 with NaOH. A suspension of pepstatin (Banyu Pharmaceutical Co. Ltd.) in water was made by homogenizing the compound with a few drops of Tween-80® (Atlas Chemical Industries). Each of these compounds were administered orally by gavage in a volume of 2 mL/kg.

Gastric Fistula Rat = test: Gastric antisecretory activity in the Gastric Fistula Rat; type: in vivo, Long Evans rats; settings: sc, 95% confidence limits in parentheses
Procedure: Determination of Gastric Antisecretory Activity in the Gastric Fistula Rat
Male Long Evans rats weighing about 240-260 grams at the time of cannula implantation are used. […] The fistula components are designed and the operative procedure is carried out exactly as described in the above reference. Post operatively the animals are individually housed in solid bottom cages with sawdust and are allowed food and water ad libitum throughout the entire recovery period. Animals are not used for test purposes for at least 15 days after the operative procedure.
The animals are fasted but allowed water ad libitum for 20 hours before the testing procedure is to begin. Immediately prior to collection, the cannula is opened and the. stomach washed gently with 30-40 mL of warm saline or distilled water to remove any residual contents. The catheter is then screwed into the cannula in place of the plugging screw and the rat is placed in a clear plastic rectangular cage measuring 40 cm long, 15 cm wide and 13 cm high. The bottom of the cage has a slit approximately 1.5 cm wide and 25 cm long running down the center to accommodate the catheter which hangs through it. In this way the rat is not restricted and can move -freely about the cage during collection periods. The remainder of the assay is carried out as described by Ridley et al. [Research Comm. Chem. Path.
Gastric secretions collected during the first hour after washing the stomach are discarded as they may be contaminated. For oral evaluation, the catheter is then removed from the cannula and replaced with the plugging screw. Water (2 mL/kg) is administered orally via gastric intubation and the animal is returned to the cage for 45 minutes. After this time the plugging screw is removed and replaced with a catheter to which a small plastic vial has been attached to collect the gastric secretions. A two hour sample is collected (this represents the control secretion), the catheter removed and.replaced with the plugging screw. The test drug is now administered orally in a volume of 2 mL/kg via gastric intubation. Forty-five minutes later the plugging screw is again removed, replaced with the catheter attached to a small plastic vial and another 2 hour sample is collected. The secretions in the second sample are compared to those of the control sample in order to determine thee effects of the test drug.
When test compounds are to be evaluated parenterally, the animal is injected ip or sc with the test compound vehicle in a volume of 2 mL/kg immediately after discarding the initial 60 minute collection. A two hour sample is collected (control secretion) and the animals are injected either ip or sc with the test compound in a volume of 2 mL/kg. An additional two hour sample is collected and its secretions are compared to those of the control period to determing drug effects.
The samples are centrifuged in a graduated tube for volume determination. Titratable acidity is measured by titrating a one mL sample to pH 7.0 with 0.02N NaOH, using an Autoburet and an electrometric pH meter (Radiometer). Titratable acid output is calculated in microequivalents by multiplying the volume in milliliters by the acid concentration in milliequivalents per liter.
Results are expressed as percent inhibition relative to control readings. Dose response curves are constructed and ED50 values are calculated by regression analyses. At least three rats are used at each dosage level and a minimum of three dosage levels are utilized for determination of a dose response curve.

gastric acid secretion = test: Inhibition of gastric acid secretion relative to cimetidine, various animal studies; type: in vivo; settings: inhibitors of gastric acid secretion, oral route
Procedure: Based on this potency difference, the oral dosage of the compounds of Examples 1 and 9 would be about 1/20 to 1/25 that of cimetidine, thus reducing the expected incidence of side effects. The usual oral dosage of cimetidine is 300 mg, given four times a day, while the usual dosage of the compounds of Examples 1 and 9 is about 12-15 mg, given four times a day. It was an object of this invention to further reduce the necessary dosage of the compounds of Formula I by the concomitant administration of a peptic activity- inhibitory amount of pepstatin. As will be shown below, such concomitant administration provides about a three-fold increase in potency compared with the administration of an equal amount of the compound of Formula I alone, thus permitting a further three-fold reduction in the dosage of the compound of Formula I.

## Nc1c(NCCCOc2cccc(CN3CCCCC3)c2)c(=O)c1=O [Example 1]
[1]; compound alone versus compound plus pepstatin (20 mg/kg po)
  Potency Ratio: 3.5
[1]; Example 1 at 25 mg/kg
  enhancement of the inhibitory effect by pepstatin: the difference was not statistically significant
[1]; Example 1 at 50 and 75 mg/kg, ranitidine at 25-100 mg/kg
  enhancement of the inhibitory effect by pepstatin: significantly enhanced the inhibitory effect
[1]; pretreatment po, compound alone, Example 1 at 25, 50 or 75 mg/kg, ranitidine at 25, 50, 75 or 100 mg/kg
  formation of gastric erosions: decreased the formation of gastric erosions in a dose-related manner
[1]; rat, compound po 30 min before 1.0 mL 0.75N HCl, compound alone, probit analysis, read-out: ED50 (mg/kg) for Inhibition of Ulcer Formation, Alone
  ED50: 115 mg/kg
[1]; rat, compound po 30 min before and pepstatin 20 mg/kg po 10 min before 1.0 mL 0.75N HCl
  ED50 (mg/kg) for Inhibition of Ulcer Formation, with Pepstatin: 33 mg/kg
Gastric Fistula Rat; Rattus norvegicus, read-out: ED50 sc
  ED50: 0.023 µmol/kg
Gastric Fistula Rat
  Potency Ratio [cimetidine = 1.0]: 162 (77-328)*
Gastric acid secretion
  times more potent than cimetidine: 20-25
